Measured values published in ChEMBL document CHEMBL5120822, “Inhibition of the P2X7/NLRP3 Inflammasome Signaling Pathway by Deacetylgedunin from Toona sinensis” (J Nat Prod, 2022).

Test system: RAW264.7
Test: Antiinflammatory activity in mouse RAW264.7 assessed as inhibition of LPS-induced NO production incubated for 1 hrs followed by LPS stimulation for 18 hrs by Griess reagent based assay
Format: functional, cell-based

IC50: 44.4 µM
Compound: CNC(=N)NCCC[C@H](N)C(=O)O [TILARGININE]
